Laboratory results published in patent US20240158446A1, “CYCLIC COMPOUND HAVING SELECTIVE INHIBITORY ACTION ON KRAS OVER HRAS AND NRAS” (CHUGAI SEIYAKU KABUSHIKI KAISHA, priority 2021, published 2024).
Like-named read-outs stand apart in the source and are kept apart here. *1 amine or outer side, *2 acyl side, *3 side chain or, on linkers, in order; H or OH if unused. Where a SMILES comes first, the peptide text is derived from it. Bridges are numbered along the chain shown (N, C = ends). [ ]: non-standard residue; d: D form. The star is where a group is joined. hPhe(3,5-F2-4-CF3) = N[C@@H](CCc1cc(F)c(C(F)(F)F)c(F)c1)C(=O)O; hPhe(3-Cl-4-CF3) = N[C@@H](CCc1ccc(C(F)(F)F)c(Cl)c1)C(=O)O; NPrPhe(4-CF3) = CCCN[C@@H](Cc1ccc(C(F)(F)F)cc1)C(=O)O; X10 = C=CCN([C@@H](Cc1ccc(C)cc1)C(=O)[*:2])[*:1]; X13 = O=C([C@@H](N[*:1])C1CC(F)(F)C1)[*:2]; NMeGly(cPent) = CN[C@H](C(=O)O)C1CCCC1; X11 = CCC[C@](C)(N[*:1])C(=O)[*:2]; NMeAllylGly = C=CC[C@H](NC)C(=O)O; Hyp = O=C(O)[C@@H]1C[C@@H](O)CN1; NMeD = CN[C@@H](CC(=O)O)C(=O)O; NMeL = CN[C@@H](CC(C)C)C(=O)O; Morpholide = C1CN(*)CCO1; Ac5c = NC1(C(=O)O)CCCC1; NPrGly = CCCNCC(=O)O; Sar = CNCC(=O)O

Assays:
[1] = molecular target: GDP-bound KRAS wild-type protein (Homo sapiens, UniProt P01116); assay: Binding to KRAS by surface plasmon resonance (SPR), Single Cycle Kinetics; conditions: GDP-bound KRAS wild-type protein, read-out: KRAS KD
Chain of GDP-bound KRAS wild-type protein (P01116 whole entry): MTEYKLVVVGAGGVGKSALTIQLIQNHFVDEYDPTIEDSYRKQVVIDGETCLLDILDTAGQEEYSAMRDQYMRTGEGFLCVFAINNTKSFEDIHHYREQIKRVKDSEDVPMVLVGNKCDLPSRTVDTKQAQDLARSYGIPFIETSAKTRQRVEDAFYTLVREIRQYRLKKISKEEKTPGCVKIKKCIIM

[2] = molecular target: GDP-bound NRAS wild-type protein (Homo sapiens, UniProt P01111); assay: Binding to NRAS by surface plasmon resonance (SPR), Single Cycle Kinetics; conditions: SPR, GDP-bound NRAS wild-type protein vs GDP-bound KRAS wild-type protein
Chain of GDP-bound NRAS wild-type protein (P01111 whole entry): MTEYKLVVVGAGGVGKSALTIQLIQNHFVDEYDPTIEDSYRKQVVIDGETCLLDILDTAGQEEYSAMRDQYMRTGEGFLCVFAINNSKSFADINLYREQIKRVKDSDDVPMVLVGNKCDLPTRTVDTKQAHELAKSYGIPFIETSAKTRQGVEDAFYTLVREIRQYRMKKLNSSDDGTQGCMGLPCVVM

[3] = molecular target: GDP-bound HRAS wild-type protein (Homo sapiens, UniProt P01112); assay: Binding to HRAS by surface plasmon resonance (SPR), Single Cycle Kinetics; conditions: SPR, GDP-bound HRAS wild-type protein vs GDP-bound KRAS wild-type protein
Chain of GDP-bound HRAS wild-type protein (P01112 whole entry): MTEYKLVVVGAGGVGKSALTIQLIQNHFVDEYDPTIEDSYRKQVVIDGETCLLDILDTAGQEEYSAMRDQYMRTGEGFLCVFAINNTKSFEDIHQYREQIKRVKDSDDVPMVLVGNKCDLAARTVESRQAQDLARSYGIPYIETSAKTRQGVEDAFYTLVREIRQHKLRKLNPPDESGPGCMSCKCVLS

[4] = SPR Single Cycle Kinetics, 1:1 binding model

Row | Compound | Kd [1, 4] | NRAS/KRAS (ratio of KD value for NRAS to KD value for KRAS) [2] | HRAS/KRAS (ratio of KD value for HRAS to KD value for KRAS) [3] | NRAS/KRAS (ratio of KD value with respect to NRAS to KD value with respect to KRAS) [2] | HRAS/KRAS (ratio of KD value with respect to HRAS to KD value with respect to KRAS) [3] | Kd ([1]; SPR, Single Cycle Kinetics) | also measured
1 | CCCN1CC(=O)NC2(CCCC2)C(=O)N(C)[C@@H](C2CCCC2)C(=O)N(C)[C@H](C(=O)N2CCOCC2)CC(=O)N(C)[C@@H](CC(C)C)C(=O)N[C@@H]([C@@H](C)CC)C(=O)N(C)CC(=O)N(C)CC(=O)N(CCC)[C@@H](Cc2ccc(C(F)(F)F)cc2)C(=O)N(C)CC(=O)N[C@@H](CCc2ccc(C(F)(F)F)c(Cl)c2)C1=O [PP0267] ([NMeL]I[Sar][Sar][NPrPhe(4-CF3)][Sar][hPhe(3-Cl-4-CF3)][NPrGly][Ac5c][NMeGly(cPent)][NMeD]-Morpholide; lactam N-11) | 0.87 nM | B (a compound having 3 or more and less than 10 is denoted as B) | B (a compound having 3 or more and less than 10 is denoted as B) | – | – | – | –
2 | CCCN1C(=O)CN(C)C(=O)CNC(=O)[C@H]([C@@H](C)CC)NC(=O)[C@H](CC(C)C)N(C)C(=O)C[C@@H](C(=O)N(C)C)NC(=O)[C@H](C2CCCC2)N(C)C(=O)C2(CCCC2)NC(=O)[C@@H]2C[C@@H](OCC)CN2C(=O)[C@H](CCc2ccc(C(F)(F)F)c(Cl)c2)NC(=O)CN(C)C(=O)[C@@H]1Cc1ccc(C(F)(F)F)cc1 [PP0365] ([NMeL]IG[Sar][NPrPhe(4-CF3)][Sar][hPhe(3-Cl-4-CF3)][Hyp](Et)[Ac5c][NMeGly(cPent)]D-NMe2; lactam N-11) | 0.29 nM | B (a compound having 3 or more and less than 10 is denoted as B) | B (a compound having 3 or more and less than 10 is denoted as B) | – | – | – | –
3 | CCCN1C(=O)CN(C)C(=O)CN(C)C(=O)[C@H](C2CC(F)(F)C2)NC(=O)[C@H](CC(C)C)N(C)C(=O)C[C@@H](C(=O)N(C)C)N(C)C(=O)[C@H](C2CCCC2)N(C)C(=O)C2(CCCC2)NC(=O)[C@@H]2CCCN2C(=O)[C@H](CCc2cc(F)c(C(F)(F)F)c(F)c2)NC(=O)CN(C)C(=O)[C@@H]1Cc1ccc(C(F)(F)F)cc1 [PP0748] ([NMeL][X13][Sar][Sar][NPrPhe(4-CF3)][Sar][hPhe(3,5-F2-4-CF3)]P[Ac5c][NMeGly(cPent)][NMeD]-NMe2; lactam N-11) | 0.08 nM | – | – | B (a compound having 3 or more and less than 10 is denoted as B) | B (a compound having 3 or more and less than 10 is denoted as B) | – | –
4 | CCCN1C(=O)CN(C)C(=O)CN(C)C(=O)[C@H]([C@@H](C)CC)NC(=O)[C@H](CC(C)C)N(C)C(=O)C[C@@H](C(=O)N2CCOCC2)N(C)C(=O)[C@H](C2CCCC2)N(C)C(=O)[C@](C)(CCC)NC(=O)[C@@H]2CCCN2C(=O)[C@H](CCc2cc(F)c(C(F)(F)F)c(F)c2)NC(=O)CN(C)C(=O)[C@@H]1Cc1ccc(C(F)(F)F)cc1 [PP0758] ([NMeL]I[Sar][Sar][NPrPhe(4-CF3)][Sar][hPhe(3,5-F2-4-CF3)]P[X11][NMeGly(cPent)][NMeD]-Morpholide; lactam N-11) | 1.6 nM | – | – | B (a compound having 3 or more and less than 10 is denoted as B) | C (A compound having a KD ratio of 0.1 or more and less than 3 is denoted as C) | – | –
5 | CCCOC[C@H]1C(=O)N[C@@H]([C@@H](C)CC)C(=O)N(C)CC(=O)N(C)[C@H]2C/C=C\CCN(C2=O)[C@@H](Cc2ccc(C)cc2)C(=O)N(C)CC(=O)N[C@@H](CCc2ccc(C(F)(F)F)c(Cl)c2)C(=O)N2C[C@H](C)C[C@H]2C(=O)NC2(CC(C)(C)C2)C(=O)N(C)[C@@H](C2CCCC2)C(=O)N(C)[C@H](C(=O)N(C)C)CC(=O)N1C [PP2234] | – | A (a compound having 10 or more and less than 20 is denoted as A) | A (a compound having 10 or more and less than 20 is denoted as A) | – | – | 0.19 nM | –
6 | CCO[C@@H]1C[C@H]2C(=O)NC3(CC(C)(C)C3)C(=O)N(C)[C@@H](C(CC)CC)C(=O)N(C)[C@H](C(=O)N(C)C)CC(=O)N(C)[C@@H](CC)C(=O)N[C@@H]([C@@H](C)CC)C(=O)N(C)CC(=O)N(C)[C@H]3C/C=C\CCN(C3=O)[C@@H](Cc3ccc(C)cc3)C(=O)N(C)CC(=O)N[C@@H](CCc3ccc(Cl)c(Cl)c3)C(=O)N2C1 [PP2188] | – | AA (a compound having 20 or more is denoted as AA) | A (a compound having 10 or more and less than 20 is denoted as A) | – | – | 0.71 nM | –
7 | CCC[C@H]1C(=O)N[C@@H](C2CCOCC2)C(=O)N(C)CC(=O)N(C)[C@H]2C/C=C\CCN(C2=O)[C@@H](Cc2ccc(C(F)(F)F)cc2)C(=O)N(C)CC(=O)N[C@@H](CCc2ccc(C(F)(F)F)c(Cl)c2)C(=O)N2C[C@H](OCC)C[C@H]2C(=O)NC2(CC(C)(C)C2)C(=O)N(C)[C@@H](CC(C)(C)C)C(=O)N(C)[C@H](C(=O)N(C)C)CC(=O)N1C [PP3022] | – | AA (a compound having 20 or more is denoted as AA) | A (a compound having 10 or more and less than 20 is denoted as A) | – | – | 0.59 nM | –
8 | CCO[C@@H]1C[C@H]2C(=O)NC3(CCC3)C(=O)N(C)[C@@H](C3CCCC3)C(=O)N(C)[C@H](C(=O)N(C)C)CC(=O)N(C)[C@@H](CC3CC3)C(=O)N[C@@H]([C@@H](C)CC)C(=O)N(C)CC(=O)N(C)[C@H]3CCCCCN(C3=O)[C@@H](Cc3ccc(C(F)(F)F)cc3)C(=O)N(C)CC(=O)N[C@@H](CCc3cc(F)c(C(F)(F)F)c(F)c3)C(=O)N2C1 [PP0667] | 0.27 nM | – | – | B (a compound having 3 or more and less than 10 is denoted as B) | B (a compound having 3 or more and less than 10 is denoted as B) | – | –
9 | CCO[C@@H]1C[C@H]2C(=O)NC3(CCC3)C(=O)N(C)[C@@H](C(CC)CC)C(=O)N(C)[C@H](C)CC(=O)N(C)[C@@H](CC3CC3)C(=O)N[C@@H]([C@@H](C)CC)C(=O)N(C)CC(=O)N(C)[C@H]3C/C=C\CCN(C3=O)[C@@H](Cc3ccc(F)cc3)C(=O)N(C)CC(=O)N[C@@H](CCc3cc(F)c(C(F)(F)F)c(F)c3)C(=O)N2C1 [PP1521] | – | – | – | – | – | – | Kd ([1]; SPR, Single Cycle Kinetics, 1:1 binding model): 2.6 nM; NRAS/KRAS (ratio of KD value for NRAS to KD value for KRAS) ([2]; KD ratio class): A (a compound having 10 or more and less than 20 is denoted as A); HRAS/KRAS (ratio of KD value for HRAS to KD value for KRAS) ([3]; KD ratio class): B (a compound having 3 or more and less than 10 is denoted as B)
10 | CC[C@H](C)[C@@H]1NC(=O)[C@H](CC(C)C)N(C)C(=O)C[C@@H](C)N(C)C(=O)[C@H](C2CCCC2)N(C)C(=O)C2(CCCC2)NC(=O)[C@@H]2CCCN2C(=O)[C@H](CCc2cc(F)c(C(F)(F)F)c(F)c2)NC(=O)CN(C)C(=O)[C@H](Cc2ccc(C(F)(F)F)cc2)N2CC/C=C\C[C@@H](C2=O)N(C)C(=O)CN(C)C1=O [PP1102] | – | B (a compound having 3 or more and less than 10 is denoted as B) | A (a compound having 10 or more and less than 20 is denoted as A) | – | – | 0.95 nM | –
11 | C=CC[C@H]1C(=O)N(CC=C)[C@@H](Cc2ccc(C)cc2)C(=O)N(C)CC(=O)N[C@@H](CCc2ccc(C(F)(F)F)c(Cl)c2)C(=O)N2CCC[C@H]2C(=O)NC2(CCCC2)C(=O)N(C)[C@@H](C2CCCC2)C(=O)N(C)[C@H](C(=O)N2CCOCC2)CC(=O)N(C)[C@@H](CC(C)C)C(=O)N[C@@H]([C@@H](C)CC)C(=O)N(C)CC(=O)N1C [PP0139] ([NMeL]I[Sar][NMeAllylGly][X10][Sar][hPhe(3-Cl-4-CF3)]P[Ac5c][NMeGly(cPent)][NMeD]-Morpholide; lactam N-11) | 230 nM | C (A compound having a KD ratio of 0.1 or more and less than 3 is denoted as C) | C (A compound having a KD ratio of 0.1 or more and less than 3 is denoted as C) | – | – | – | –
12 | CCO[C@@H]1C[C@H]2C(=O)NC3(CCC3)C(=O)N(C)[C@@H](C3CCCC3)C(=O)N(CC)[C@H](C(=O)N3CCOCC3)CC(=O)N(C)[C@@H](CC(C)C)C(=O)N[C@@H]([C@@H](C)CC)C(=O)N(C)CC(=O)N(C)[C@H]3CCCCN(C3=O)[C@@H](Cc3ccc(C(F)(F)F)cc3)C(=O)N(C)CC(=O)N[C@@H](CCc3cc(F)c(C(F)(F)F)c(F)c3)C(=O)N2C1 [PP0648] | 0.21 nM | – | – | B (a compound having 3 or more and less than 10 is denoted as B) | B (a compound having 3 or more and less than 10 is denoted as B) | – | –
13 | CCCN1C(=O)CN(C)C(=O)CN(C)C(=O)[C@H]([C@@H](C)CC)NC(=O)[C@H](CC(C)C)N(C)C(=O)C[C@@H](C(=O)N(C)C)N(C)C(=O)[C@H](C2CCCC2)N(C)C(=O)[C@](C)(CCC)NC(=O)[C@@H]2CCCN2C(=O)[C@H](CCc2cc(F)c(C(F)(F)F)c(F)c2)NC(=O)CN(C)C(=O)[C@@H]1Cc1ccc(C(F)(F)F)cc1 [PP0737] ([NMeL]I[Sar][Sar][NPrPhe(4-CF3)][Sar][hPhe(3,5-F2-4-CF3)]P[X11][NMeGly(cPent)][NMeD]-NMe2; lactam N-11) | 0.55 nM | – | – | B (a compound having 3 or more and less than 10 is denoted as B) | C (A compound having a KD ratio of 0.1 or more and less than 3 is denoted as C) | – | –
14 | CCO[C@@H]1C[C@H]2C(=O)NC3(CCC3)C(=O)N(C)[C@@H](C3CCCC3)C(=O)N(C)[C@H](C)CC(=O)N(C)[C@@H](CC)C(=O)N[C@@H]([C@@H](C)CC)C(=O)N(C)CC(=O)N(C)[C@H]3C/C=C\CCN(C3=O)[C@@H](Cc3ccc(C(F)(F)F)cc3)C(=O)N(C)CC(=O)N[C@@H](CCc3cc(F)c(C(F)(F)F)c(F)c3)C(=O)N2C1 [PP1095] | – | B (a compound having 3 or more and less than 10 is denoted as B) | B (a compound having 3 or more and less than 10 is denoted as B) | – | – | 0.18 nM | –
